Test results as given in US20240116985A1, “STAPLED PEPTIDES AND METHODS THEREOF” (priority 2020, published 2024).
Converted amounts (≈) assume the structure as drawn. Where two headings read alike, the source gives them in different places.

Columns and labels:
Solubility in PBS = format: physicochemical
Method in brief: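 Read-out is the HPLC peak area of the supernatant from ultracentrifuged PBS solution, scaled against a 50 μM peptide DMSO injection; value reported as [(PBS area)/(DMSO area)]*50 uM.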

[1] = molecular target: T1, beta-catenin/TCF4 engagement (Homo sapiens, UniProt P35222); experiment: Nano-BRET target engagement assay (B-cat-Halo & TCF4-Luc in HEK293 cells); format: cell-based; details: absolute IC50; read-out: NanoBRET Abs IC50
T1 construct: expressed in transfected cells; host or cells: HEK293
T1 sequence (P35222 1-781): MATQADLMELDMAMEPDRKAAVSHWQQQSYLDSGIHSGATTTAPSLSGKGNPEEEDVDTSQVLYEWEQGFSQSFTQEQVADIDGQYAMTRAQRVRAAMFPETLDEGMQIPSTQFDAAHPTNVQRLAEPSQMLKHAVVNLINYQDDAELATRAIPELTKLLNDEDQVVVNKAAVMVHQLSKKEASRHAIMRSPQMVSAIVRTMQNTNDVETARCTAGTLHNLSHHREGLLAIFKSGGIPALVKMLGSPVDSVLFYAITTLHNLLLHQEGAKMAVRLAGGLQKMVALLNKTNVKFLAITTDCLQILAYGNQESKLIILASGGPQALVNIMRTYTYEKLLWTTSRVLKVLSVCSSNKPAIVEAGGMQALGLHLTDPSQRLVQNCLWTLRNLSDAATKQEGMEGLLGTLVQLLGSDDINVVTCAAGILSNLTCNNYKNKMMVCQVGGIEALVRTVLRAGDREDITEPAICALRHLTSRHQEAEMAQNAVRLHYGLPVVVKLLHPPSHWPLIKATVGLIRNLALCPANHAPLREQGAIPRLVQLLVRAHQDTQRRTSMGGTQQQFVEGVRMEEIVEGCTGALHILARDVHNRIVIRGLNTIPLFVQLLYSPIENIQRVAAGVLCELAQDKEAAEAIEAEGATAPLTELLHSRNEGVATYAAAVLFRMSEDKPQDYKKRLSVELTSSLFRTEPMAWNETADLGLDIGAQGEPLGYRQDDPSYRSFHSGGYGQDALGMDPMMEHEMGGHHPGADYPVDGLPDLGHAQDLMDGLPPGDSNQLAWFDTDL

[2] = molecular target: T2, full-length beta-Catenin (Uniprot ID P35222) (Homo sapiens, UniProt P35222); experiment: Fluorescence polarization IC50 (beta-catenin / 5FAM-TCF4 10-53 competition); format: binding; details: fluorescence polarization; read-out: beta-Catenin FP IC50
T2 construct: 10 nM full-length beta-Catenin (Uniprot ID P35222)
T2 sequence (P35222 1-781): T1 sequence (P35222 1-781)

Solubility (Solubility in PBS; Solubility (uM)) [µM] | IC50 [1] [µM] | IC50 [2] [nM] | Solubility (Solubility in PBS) [µM] | SMILES
– | 22.7 | 152 | 10 (≈ 18.9 µg/mL) | CC(=O)N1CCC[C@]12CC=CCCCC1(CCCC=CCCCOC(=O)N3CC[C@@](C(=O)N[C@@H](Cc4ccccc4)C(=O)N[C@@H](Cc4csc5ccccc45)C(=O)N[C@@H](CO)C(N)=O)(C3)NC(=O)[C@H]([C@@H](C)O)NC(=O)[C@H](Cc3ccccc3)NC(=O)[C@H](CC(C)C)NC(=O)[C@H](C)NC(=O)[C@H]([C@@H](C)O)NC(=O)[C@H](CC(=O)O)NC1=O)NC(=O)[C@H](CC(C)(C)C)NC(=O)[C@H](CC(=O)O)NC2=O (stereo partly drawn) [I-1265, Ac-PL3-Asp-Npg-B5-Asp-Thr-Ala-Leu-Phe-Thr-PyrS2-Phe-BztA-Ser-NH2]
– | 16.3 | 16 | 50 (≈ 97.1 µg/mL) | CC(=O)N1CCC[C@]12CC=CCCCC1(CCCC=CCCCOC(=O)N3CC[C@@](C(=O)N[C@@H](Cc4ccsc4)C(=O)N[C@@H](Cc4csc5ccccc45)C(=O)N[C@@H](CCC(N)=O)C(N)=O)(C3)NC(=O)[C@H](CC(C)C)NC(=O)[C@H](Cc3ccc(C#N)cc3)NC(=O)[C@H](C)NC(=O)[C@H](C)NC(=O)[C@H](CC(=O)O)NC(=O)[C@H](CC(=O)O)NC1=O)NC(=O)[C@H](CC(C)(C)C)NC(=O)[C@H](CC(=O)O)NC2=O (stereo partly drawn) [I-1202, Ac-PL3-Asp-Npg-B5-Asp-Asp-Ala-Ala-4CNF-Leu-PyrS2-3Thi-BztA-Gln-NH2]
49 (≈ 97 µg/mL) | 9.7 | 9 | – | CC(=O)N1CCC[C@]12CC=CCCCC1(CCCC=CCCCOC(=O)N3CC[C@@](C(=O)N[C@@H](Cc4ccccc4C(F)(F)F)C(=O)N[C@@H](Cc4csc5ccccc45)C(=O)N[C@@H](CCC(N)=O)C(N)=O)(C3)NC(=O)[C@H](CC(N)=O)NC(=O)[C@H](Cc3ccccc3)NC(=O)[C@H](C)NC(=O)[C@H](C)NC(=O)[C@H](CC(=O)O)NC(=O)[C@H](CC(=O)O)NC1=O)NC(=O)[C@H](CC(C)(C)C)NC(=O)[C@H](CC(=O)O)NC2=O (stereo partly drawn) [I-1317, Ac-PL3-Asp-Npg-B5-Asp-Asp-Ala-Ala-Phe-Asn-PyrS2-2F3MeF-BztA-Gln-NH2]
24 (≈ 47.8 µg/mL) | 43.1 | 34 | – | CC(=O)N1CCC[C@]12CC=CCCCC1(CCCC=CCCCOC(=O)N3CC[C@@](C(=O)N[C@@H](Cc4ccccc4Cl)C(=O)N[C@@H](Cc4csc5ccccc45)C(=O)N[C@H](C(N)=O)[C@@H](C)O)(C3)NC(=O)[C@H](CCCCNC(C)C)NC(=O)[C@H](Cc3ccccc3)NC(=O)[C@H](C)NC(=O)[C@H](C)NC(=O)[C@H](CCC(=O)O)NC(=O)[C@H](CC(=O)O)NC1=O)NC(=O)[C@H](CC(C)(C)C)NC(=O)[C@H](CC(=O)O)NC2=O (stereo partly drawn) [I-1282, Ac-PL3-Asp-Npg-B5-Asp-Glu-Ala-Ala-Phe-iPrLys-PyrS2-2C1F-BztA-Thr-NH2]
11 (≈ 21.1 µg/mL) | 7.5 | 40 | – | CC(=O)N1CCC[C@]12CC=CCCCC1(CCCC=CCCCOC(=O)N3CC[C@@](C(=O)N[C@@H](Cc4ccsc4)C(=O)N[C@@H](Cc4csc5ccccc45)C(=O)N[C@@H](CCC(N)=O)C(N)=O)(C3)NC(=O)[C@H](CC(C)C)NC(=O)[C@H](Cc3ccccc3)NC(=O)[C@H](C)NC(=O)[C@H](C)NC(=O)[C@H](CC(=O)O)NC(=O)[C@H](CC(N)=O)NC1=O)NC(=O)[C@H](CC(C)(C)C)NC(=O)[C@H](CC(=O)O)NC2=O (stereo partly drawn) [I-1207, Ac-PL3-Asp-Npg-B5-Asn-Asp-Ala-Ala-Phe-Leu-PyrS2-3Thi-BztA-Gln-NH2]
– | > 20 | 13 | 10 (≈ 20.2 µg/mL) | CC(=O)N1CCC[C@]12CC=CCCCC1(CCCC=CCCCOC(=O)N3CC[C@@](C(=O)N[C@@H](Cc4ccccc4Cl)C(=O)N[C@@H](Cc4csc5ccccc45)C(=O)N[C@@H](CC(C)C)C(N)=O)(C3)NC(=O)[C@H]([C@@H](C)O)NC(=O)[C@H](Cc3ccccc3)NC(=O)[C@H](C)NC(=O)[C@H](CCCCNC(C)C)NC(=O)[C@H](CC(=O)O)NC(=O)[C@H](CC(=O)O)NC1=O)NC(=O)[C@H](CC(C)(C)C)NC(=O)[C@H](CC(=O)O)NC2=O (stereo partly drawn) [I-1274, Ac-PL3-Asp-Npg-B5-Asp-Asp-iPrLys-Ala-Phe-Thr-PyrS2-2C1F-BztA-Leu-NH2]

More lines, now with the values behind:

SMILES | Solubility (Solubility in PBS; Solubility (uM)) [µM] | IC50 [1] [µM] | IC50 [2] [nM] | Solubility (Solubility in PBS) [µM]
CC(=O)N1CCC[C@]12CC=CCCCC1(CCCC=CCCCOC(=O)N3CC[C@@](C(=O)N[C@@H](Cc4c(F)c(F)c(F)c(F)c4F)C(=O)N[C@@H](Cc4csc5ccccc45)C(=O)N[C@@H](CO)C(N)=O)(C3)NC(=O)[C@H]([C@@H](C)O)NC(=O)[C@H](Cc3ccccc3)NC(=O)[C@H](C)NC(=O)[C@H](C)NC(=O)[C@H](CC(=O)O)NC(=O)[C@H](CC(=O)O)NC1=O)NC(=O)[C@H](CC1CCCCC1)NC(=O)[C@H](CC(=O)O)NC2=O (stereo partly drawn) [I-1187, Ac-PL3-Asp-Cha-B5-Asp-Asp-Ala-Ala-Phe-Thr-PyrS2-Pff-BztA-Ser-NH2] | 42 (≈ 82.9 µg/mL) | 28.6 | 80.5 | –
CC(=O)N1CCC[C@]12CC=CCCCC1(CCCC=CCCCOC(=O)N3CC[C@@](C(=O)N[C@@H](Cc4ccccc4Cl)C(=O)N[C@@H](Cc4csc5ccccc45)C(=O)N[C@@H](C(N)=O)[C@H](C)O)(C3)NC(=O)[C@H](CC(C)C)NC(=O)[C@H](Cc3ccccc3)NC(=O)[C@H](C)NC(=O)[C@H](C)NC(=O)[C@H](CC(=O)O)NC(=O)[C@H](CC(=O)O)NC1=O)NC(=O)[C@H](CC1CCCCC1)NC(=O)[C@H](CC(=O)O)NC2=O (stereo partly drawn) [I-1140, Ac-PL3-Asp-Cha-B5-Asp-Asp-Ala-Ala-Phe-Leu-PyrS2-2C1F-BztA-dThr-NH2] | – | 32.5 | 33 | 10 (≈ 19.4 µg/mL)
CC(=O)N1CCC[C@]12CC=CCCCC1(CCCC=CCCCCCC[C@@](C)(C(=O)N[C@@H](Cc3ccsc3)C(=O)N[C@@H](Cc3csc4ccccc34)C(=O)N[C@@H](Cc3c[nH]cn3)C(N)=O)NC(=O)[C@H](CC(C)C)NC(=O)[C@H](Cc3ccccc3)NC(=O)[C@H](C)NC(=O)[C@H](C)NC(=O)[C@H](CC(=O)O)NC(=O)[C@H](CC(=O)O)NC1=O)NC(=O)[C@H](CC(C)(C)C)NC(=O)[C@H](CC(=O)O)NC2=O (stereo partly drawn) [I-1195, Ac-PL3-Asp-Npg-B5-Asp-Asp-Ala-Ala-Phe-Leu-S8-3Thi-BztA-His-NH2] | – | 16.2 | 29.5 | 10 (≈ 18.8 µg/mL)
CC(=O)N1CCC[C@]12CC=CCCCC1(CCCC=CCCCOC(=O)N3CC[C@@](C(=O)N[C@@H](Cc4ccsc4)C(=O)N[C@@H](Cc4csc5ccccc45)C(=O)N[C@@H](CO)C(N)=O)(C3)NC(=O)[C@H]([C@@H](C)O)NC(=O)[C@H](Cc3ccccc3)NC(=O)[C@H](C)NC(=O)[C@H](C)NC(=O)[C@H]([C@@H](C)O)NC(=O)[C@H](CC(=O)O)NC1=O)NC(=O)[C@H](CC(C)(C)C)NC(=O)[C@H](CC(=O)O)NC2=O (stereo partly drawn) [I-1170, Ac-PL3-Asp-Npg-B5-Asp-Thr-Ala-Ala-Phe-Thr-PyrS2-3Thi-BztA-Ser-NH2] | – | 13.5 | 15 | 10 (≈ 18.5 µg/mL)
CC(=O)N1CCC[C@]12CC=CCCCC1(CCCC=CCCCCCC[C@@](C)(C(=O)N[C@@H](Cc3ccsc3)C(=O)N[C@@H](Cc3csc4ccccc34)C(=O)N[C@@H](CCC(N)=O)C(N)=O)NC(=O)[C@H](CC(C)C)NC(=O)[C@H](Cc3ccccc3)NC(=O)[C@H](C)NC(=O)[C@H](C)NC(=O)[C@H](CC(=O)O)NC(=O)[C@H](CC(=O)O)NC1=O)NC(=O)[C@H](CC(C)(C)C)NC(=O)[C@H](CC(=O)O)NC2=O (stereo partly drawn) [I-1188, Ac-PL3-Asp-Npg-B5-Asp-Asp-Ala-Ala-Phe-Leu-S8-3Thi-BztA-Gln-NH2] | 18 (≈ 33.7 µg/mL) | 7.2 | 22.5 | –
CC(=O)N1CCC[C@]12CC=CCCCC1(CCCC=CCCCOC(=O)N3CC[C@@](C(=O)N[C@@H](Cc4ccsc4)C(=O)N[C@@H](Cc4csc5ccccc45)C(=O)N[C@@H](CCC(N)=O)C(N)=O)(C3)NC(=O)[C@H](CC(C)C)NC(=O)[C@H](Cc3ccccc3C#N)NC(=O)[C@H](C)NC(=O)[C@H](C)NC(=O)[C@H](CC(=O)O)NC(=O)[C@H](CC(=O)O)NC1=O)NC(=O)[C@H](CC(C)(C)C)NC(=O)[C@H](CC(=O)O)NC2=O (stereo partly drawn) [I-1200, Ac-PL3-Asp-Npg-B5-Asp-Asp-Ala-Ala-2CNF-Leu-PyrS2-3Thi-BztA-Gln-NH2] | 48 (≈ 93.2 µg/mL) | > 20 | 99 | –
CC(=O)N1CCC[C@]12CC=CCCCC1(CCCC=CCCCOC(=O)N3CC[C@@](C(=O)N[C@@H](Cc4ccccc4Cl)C(=O)N[C@@H](Cc4csc5ccccc45)C(=O)N[C@@H](C(N)=O)[C@H](C)O)(C3)NC(=O)[C@H](CO)NC(=O)[C@H](Cc3ccccc3)NC(=O)[C@H](C)NC(=O)[C@H](C)NC(=O)[C@H](CC(=O)O)NC(=O)[C@H](CC(=O)O)NC1=O)NC(=O)[C@H](CC1CCCCC1)NC(=O)[C@H](CC(=O)O)NC2=O (stereo partly drawn) [I-1136, Ac-PL3-Asp-Cha-B5-Asp-Asp-Ala-Ala-Phe-Ser-PyrS2-2C1F-BztA-dThr-NH2] | 40 (≈ 76.7 µg/mL) | 14.9 | 16 | –
